From patent publication US5464826A, “Method of treating tumors in mammals with 2',2'-difluoronucleosides” (Eli Lilly and Company, priority 1994, dated 1995)

Columns and labels:
CA755 adenocarcinoma = CA755 adenocarcinoma tumor model; type: in vivo, mice (C57BL/6); settings: IP, Days 1,5,9
Excerpt: CA755--The adenocarcinoma 755 is an undifferentiated mammary carcinoma which was obtained in 1980 from the Division of Cancer Treatment, N.C.I., tumor bank maintained at E.G. and G. Mason Research (Worchester, Mass.). First passage tumor was stored in liquid nitrogen using standard techniques. The transplanted tumor was re-established from the tumor bank every six months or as needed. The tumor is maintained by serial passage once a week in C57BL/6 female mice (Jackson Laboratory; Bar Harbor, Me.).
(§1) The tumor was removed from passage animals and minced into 1 to 3 mm square fragments using sterile techniques. Tumor pieces were checked for sterility using both Antibiotic Medium 1 and Brain Heart Infusion (Difco; Detroit, Mich.). Recipient mice were shaved and tumor pieces were implanted subcutaneously in the axillary region by trocar. Drug therapy on the appropriate schedule was initiated on the day after tumor implant. The compound was dissolved in saline for all experiments. All animals were weighed at the beginning and end of drug treatment. Food and water were provided ad libitum. On days 10 to 12, two dimensional measurements (width and length) of all tumors were taken using vernier calipers. Tumor weights were calculated from these measurements using the following formula:
(§2) Tumor Weight (mg)=Tumor Length (mm)×Tumor Width (mm)^2 /2
(§3) For all data, the tumor weight was rounded to the nearest tenth of a gram for analysis. No group is included in the analysis for therapeutic activity in which deaths attributable to drug toxicity exceeded 30 percent of the treated group.
(§4) In Table 3 which follows, column 1 gives the example number of the compound tested; column 2 provides the tumor system; column 3, the dose level; column 4, the route administered; column 5, the dosage schedule; column 6, the percent inhibition of the tumor; and column 7, the toxic deaths observed prior to completion of the study.

[1] = system: 6C3HED, CA755, P1534J, X5563; assay: additional tumor test systems (summary statement); type: in vivo, mice; settings: systems include 6C3HED
Excerpt: These systems include the 6C3HED lymphosarcoma, also known as the Gardner lymphosarcoma (6C3HED); the CA-755 adenocarcinoma (CA755); the P1534J lymphatic leukemia (P1534J); and the X5563 plasma cell myeloma (X5563). Each of these systems is described in detail below.
as §1, with “formula: […]” for “formula:”

[2] = system: P1534J lymphatic leukemia; assay: P1534J lymphatic leukemia tumor model; type: in vivo, mice (DBA/2); settings: IP, Days 1,5,9
Excerpt: P1534J--The P1534J lymphocytic leukemia (solid form) was obtained in 1973 from the Jackson Laboratory (Bar Harbor, Me.). First passage tumor was stored in liquid nitrogen using standard techniques. Subsequent replenishment of the tumor bank with this tumor was accomplished from first passage tumor. The transplanted tumor was re-established from the tumor bank every six months or as needed. The tumor is maintained by serial passage once a week in DBA/2 mice (Charles River; Wilmington, Mass.).
as §1, §2, §3, §4

## Nc1ccn(C2O[C@H](CO)[C@@H](O)C2(F)F)c(=O)n1 (stereo partly drawn) [Example 1, 1-(4-Amino-2-oxo-1H-pyrimidin-1-yl)-2-desoxy-2,2-difluororibose]
CA755 adenocarcinoma; 1.25 mg/kg
  Percent Inhibition of Tumor: 0%
  Toxic Deaths: 0/10
CA755 adenocarcinoma; 2.5 mg/kg
  Percent Inhibition of Tumor: 44%
  Toxic Deaths: 0/10
CA755 adenocarcinoma; 5.0 mg/kg
  Percent Inhibition of Tumor: 85%
  Toxic Deaths: 0/10
CA755 adenocarcinoma; 10.0 mg/kg
  Percent Inhibition of Tumor: 86%
  Toxic Deaths: 0/10
CA755 adenocarcinoma; 20.0 mg/kg
  Percent Inhibition of Tumor: 94%
  Toxic Deaths: 0/10
[1]
  activity in additional tumor test systems (in words): demonstrated activity in additional tumor test systems
[2]; 1.25 mg/kg
  Percent Inhibition of Tumor: 8%
  Toxic Deaths: 0/10
[2]; 2.5 mg/kg
  Percent Inhibition of Tumor: 30%
  Toxic Deaths: 0/10
[2]; 5.0 mg/kg
  Percent Inhibition of Tumor: 47%
  Toxic Deaths: 0/10
[2]; 10.0 mg/kg
  Percent Inhibition of Tumor: 71%
  Toxic Deaths: 2/10
[2]; 20.0 mg/kg
  Percent Inhibition of Tumor: 92%
  Toxic Deaths: 1/10
